Literature values, collected in patent publication US20110020272A1, “COMBINATION THERAPY FOR TREATING HEPATITIS VIRAL INFECTION” (priority 2009, published 2011).
Like-named read-outs stand apart in the source and are kept apart here.

Legend:
HCV = details: cited from earlier work; for median HCV RNA decline: experienced patients
HCV genotype 1 [1] = details: cited from earlier work; for reduction in HCV RNA levels: after 8 days
HCV genotype 1 [2] = details: cited from earlier work; for week 4 rapid virologic response rate: PEG-interferon alpha-2a

For `C=C[C@@H]1C[C@]1(NC(=O)[C@@H]1C[C@@H](Oc2cc(-c3csc(NC(=O)C(C)C)n3)nc3c(Br)c(OC)ccc23)CN1C(=O)[C@@H](NC(=O)OC1CCCC1)C(C)(C)C)C(=O)O` [BI 201335], the “median HCV RNA decline” value (HCV; combination with PEG-interferon alpha-2a/ribavirin for 28 days) is given as 4.8-5.3 log 10 IU/ml and the “median HCV RNA decline” value (HCV; monotherapy for 14 days) is given as 3-4.2 log 10 IU/mL.

For `C/C=C/C[C@@H](C)[C@@H](O)[C@H]1C(=O)N[C@@H](CC)C(=O)N(C)[C@H](C)C(=O)N(CC)[C@@H](C(C)C)C(=O)N[C@@H](C(C)C)C(=O)N(C)[C@@H](CC(C)C)C(=O)N[C@@H](C)C(=O)N[C@H](C)C(=O)N(C)[C@@H](CC(C)C)C(=O)N(C)[C@@H](CC(C)C)C(=O)N(C)[C@@H](C(C)C)C(=O)N1C` [DEBIO-025], the antiviral activity (HCV genotype 1 [1]; monotherapy, null responders) is listed as “no antiviral activity was observed” and the “HCV RNA decline” value (HCV genotype 1 [1]; triple combination with PEG-interferon alpha-2a and ribavirin, after 29 days, null responders, different dosing arms) is listed as 0.88-2.38 log 10 IU/mL.

For `CCc1cc(CC[C@]2(C3CCCC3)CC(O)=C(Cc3nc4nc(C)cc(C)n4n3)C(=O)O2)cc(CC)n1` [Filibuvir], the “rapid virologic response rate” value (HCV genotype 1 [2]; triple therapy with PEG-interferon alpha-2a and ribavirin, treatment naïve) is given as 60-75%.

In the case of `CNC(=O)c1c(-c2ccc(F)cc2)oc2cc(N(CCO)S(C)(=O)=O)c(C3CC3)cc12` [HCV-796], the mean viral reduction (HCV; after 14 days, HCV-796 plus PEG-interferon alpha-2b vs PEG-interferon alpha-2b alone) is listed as 3.3-3.5 log 10 IU/mL and the “mean HCV RNA reduction” value (HCV; monotherapy, maximum effect after 4 days) is listed as 1.4 log 10 IU/mL.

For `C/C=C/C[C@@H](C)[C@@H](O)[C@H]1C(=O)N[C@@H](CC)C(=O)N(C)CC(=O)N(C)[C@@H]([C@@H](C)CC)C(=O)N[C@@H](C(C)C)C(=O)N(C)[C@@H](CC(C)C)C(=O)N[C@@H](C)C(=O)N[C@H](C)C(=O)N(C)[C@@H](CC(C)C)C(=O)N(C)[C@@H](CC(C)C)C(=O)N(C)[C@@H](C(C)C)C(=O)N1C` [NIM811], the “mean HCV RNA decline” value (HCV genotype 1 [1]; combination with PEG-interferon alpha-2a, after 14 days, previous relapse) is given as 2.78 log 10 IU/mL.

For `CC(C)C(=O)OC[C@@]1(N=[N+]=[N-])O[C@@H](n2ccc(N)nc2=O)[C@H](OC(=O)C(C)C)[C@@H]1OC(=O)C(C)C` [R1626], the virologic response rates (HCV genotype 1 [2]; after 48 weeks (4 weeks R1626 plus PEG-interferon alpha-2a with or without ribavirin, then 44 weeks PEG-interferon alpha-2a plus ribavirin) vs control arm) is given as 52-84%, the “end of treatment response” value (HCV genotype 1 [2]; non-ribavirin arm) is given as 52-66% and the “end of treatment response” value (HCV genotype 1 [2]; ribavirin arm) is given as 84%. The “mean maximal viral load reduction from baseline” value (HCV; combination with PEG-IFN and RbV for 4 weeks) was 5.2 log 10 IU/mL.

In the case of `CC(C)C(=O)OC[C@H]1O[C@@H](n2ccc(N)nc2=O)[C@](C)(F)[C@@H]1OC(=O)C(C)C` [R7128], the “week 4 rapid virologic response rate” value (HCV genotype 1 [2]; ribavirin plus R7128 500 mg twice daily, treatment naïve) is given as 30%, the “week 4 rapid virologic response rate” value (HCV genotype 1 [2]; ribavirin plus R7128 1,500 mg twice daily, treatment naïve) is given as 85% and the mean viral decline (HCV; non responders, 1,500 mg twice daily, after 14 days) is given as 2.7 log 10 IU/mL.

For `CCCC[C@H](NC(=O)[C@@H]1[C@@H]2[C@H](CN1C(=O)[C@@H](NC(=O)NC1(CS(=O)(=O)C(C)(C)C)CCCCC1)C(C)(C)C)C2(C)C)C(=O)C(=O)NC1CC1` [SCH 900518], the “reduction in HCV RNA levels” value (HCV genotype 1 [1]; 400 mg twice/day plus PEG-interferon alpha-2a/ribavirin plus ritonavir 100 mg/d) is listed as 4.01 log 10 IU/mL and the “reduction in HCV RNA levels” value (HCV genotype 1 [1]; 800 mg thrice/day plus PEG-interferon alpha-2a/ribavirin) is listed as 4.5 log 10 IU/mL.

For `COc1ccc2c(O[C@@H]3C[C@H]4C(=O)N[C@]5(C(=O)NS(=O)(=O)C6CC6)C[C@H]5/C=C\CCCCN(C)C(=O)[C@@H]4C3)cc(-c3nc(C(C)C)cs3)nc2c1C` [TMC435], the “antiviral activity (HCV RNA decline)” value (HCV genotype 1 [1]; 4 weeks, TMC435 with PEG-interferon-alpha2a/ribavirin vs control arms, treatment-experienced) is given as 4.3-5.3 log 10 IU/mL.

In the case of `CC(C)[C@H](N)C(=O)O[C@@H]1[C@@H](CO)O[C@@H](n2ccc(N)nc2=O)[C@]1(C)O` [Valopicitabine], the “mean HCV-RNA decline” value (HCV genotype 1 [1]; combination with interferon alpha, after 36 weeks, treatment naïve) is given as 3.75-4.41 log 10 IU/mL and the “mean HCV-RNA decline” value (HCV genotype 1 [1]; monotherapy, after 14 days, prior non response to interferon based treatment) is given as 0.15-1.21 log 10 IU/mL.
